Experiments:
[1] = DRUGMATRIX: Calcium Channel Type L, Phenylalkylamine radioligand binding (ligand: [3H] (-)-Desmethoxyverapamil (D-888)); assay type: cell membranes, Rattus norvegicus, Wistar, Brain, Membrane; details: Not Active = under 50% inhibition at 10 µM
[2] = target: T1, Amine oxidase [flavin-containing] A (Homo sapiens, UniProt P21397); experiment: DRUGMATRIX: Monoamine Oxidase MAO-A enzyme inhibition (substrate: Kynuramine); design: species or system BTI-TN-5B1-4; details: bti-tn-5b1-4; Not Active = under 50% inhibition at 10 µM
T1 sequence (P21397 whole entry): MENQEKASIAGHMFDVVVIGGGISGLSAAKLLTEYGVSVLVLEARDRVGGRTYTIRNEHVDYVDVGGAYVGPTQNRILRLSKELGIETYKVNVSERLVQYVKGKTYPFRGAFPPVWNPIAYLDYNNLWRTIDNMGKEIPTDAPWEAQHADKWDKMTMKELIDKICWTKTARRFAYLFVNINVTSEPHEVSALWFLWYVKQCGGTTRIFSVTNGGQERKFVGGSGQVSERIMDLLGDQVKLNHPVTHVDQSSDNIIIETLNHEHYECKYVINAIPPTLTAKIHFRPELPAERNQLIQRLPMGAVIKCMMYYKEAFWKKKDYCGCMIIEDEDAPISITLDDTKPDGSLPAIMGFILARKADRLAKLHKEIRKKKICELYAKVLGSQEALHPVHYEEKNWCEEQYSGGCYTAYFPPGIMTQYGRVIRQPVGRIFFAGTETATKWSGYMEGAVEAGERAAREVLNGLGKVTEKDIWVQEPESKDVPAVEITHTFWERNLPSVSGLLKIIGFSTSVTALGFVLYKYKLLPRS

[3] = target: T2, B2 bradykinin receptor (Homo sapiens, UniProt P30411); assay type: cell membranes, Membrane; details: chem-1; note: in other assays of this panel Not Active means under 50% inhibition at 10 µM
T2 sequence (P30411 whole entry): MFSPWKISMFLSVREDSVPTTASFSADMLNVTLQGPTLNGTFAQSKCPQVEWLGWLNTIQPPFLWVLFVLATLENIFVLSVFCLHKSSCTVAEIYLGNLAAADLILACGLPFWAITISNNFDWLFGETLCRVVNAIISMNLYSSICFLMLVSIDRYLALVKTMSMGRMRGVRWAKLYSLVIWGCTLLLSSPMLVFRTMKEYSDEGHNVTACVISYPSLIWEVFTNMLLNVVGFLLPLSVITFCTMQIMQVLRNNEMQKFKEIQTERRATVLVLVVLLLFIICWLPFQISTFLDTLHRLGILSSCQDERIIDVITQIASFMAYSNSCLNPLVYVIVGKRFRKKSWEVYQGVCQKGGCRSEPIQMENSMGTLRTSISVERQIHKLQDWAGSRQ

[4] = DRUGMATRIX: Calcium Channel Type L, Dihydropyridine radioligand binding (ligand: [3H] Nitrendipine); assay type: cell membranes, Rattus norvegicus, Wistar, Cerebral cortex, Membrane; details: Not Active = under 50% inhibition at 10 µM
[5] = target: T3, Cysteinyl leukotriene receptor 1 (Homo sapiens, UniProt Q9Y271); assay type: cell membranes, CHO-K1, Membrane; details: cho-k1; note: in other assays of this panel Not Active means under 50% inhibition at 10 µM
T3 sequence (Q9Y271 whole entry): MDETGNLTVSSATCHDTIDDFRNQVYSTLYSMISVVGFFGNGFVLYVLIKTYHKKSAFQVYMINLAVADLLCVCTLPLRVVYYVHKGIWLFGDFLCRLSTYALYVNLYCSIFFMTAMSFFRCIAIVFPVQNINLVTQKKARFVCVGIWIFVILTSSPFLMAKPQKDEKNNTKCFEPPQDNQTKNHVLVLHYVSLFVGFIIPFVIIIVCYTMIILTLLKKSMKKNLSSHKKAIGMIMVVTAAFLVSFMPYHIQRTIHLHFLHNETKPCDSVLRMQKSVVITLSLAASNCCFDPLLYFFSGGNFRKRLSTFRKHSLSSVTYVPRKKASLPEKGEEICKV

[6] = target: T4, Alpha-1D adrenergic receptor (Homo sapiens, UniProt P25100); assay type: cell membranes, HEK293, Membrane; details: hek293; note: in other assays of this panel Not Active means under 50% inhibition at 10 µM
T4 sequence (P25100 whole entry): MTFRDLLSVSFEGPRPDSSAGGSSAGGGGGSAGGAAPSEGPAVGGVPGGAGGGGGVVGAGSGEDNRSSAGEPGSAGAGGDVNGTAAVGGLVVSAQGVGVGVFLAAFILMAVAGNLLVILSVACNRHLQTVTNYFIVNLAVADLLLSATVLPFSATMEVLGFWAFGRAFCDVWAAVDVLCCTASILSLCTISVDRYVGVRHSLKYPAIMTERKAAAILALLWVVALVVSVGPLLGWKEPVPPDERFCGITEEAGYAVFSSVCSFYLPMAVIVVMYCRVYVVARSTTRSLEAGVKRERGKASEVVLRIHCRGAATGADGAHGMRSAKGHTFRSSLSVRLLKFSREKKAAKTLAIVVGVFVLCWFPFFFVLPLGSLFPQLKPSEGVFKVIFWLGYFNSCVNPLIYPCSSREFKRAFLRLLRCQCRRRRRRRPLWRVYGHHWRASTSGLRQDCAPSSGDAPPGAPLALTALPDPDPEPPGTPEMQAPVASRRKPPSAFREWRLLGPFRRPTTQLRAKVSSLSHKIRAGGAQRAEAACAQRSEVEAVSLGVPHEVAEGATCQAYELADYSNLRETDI

[7] = target: Substance-P receptor (Homo sapiens, UniProt P25103); assay type: cell membranes, CHO, Membrane; details: cho; note: in other assays of this panel Not Active means under 50% inhibition at 10 µM
Sequence of Substance-P receptor (P25103 whole entry): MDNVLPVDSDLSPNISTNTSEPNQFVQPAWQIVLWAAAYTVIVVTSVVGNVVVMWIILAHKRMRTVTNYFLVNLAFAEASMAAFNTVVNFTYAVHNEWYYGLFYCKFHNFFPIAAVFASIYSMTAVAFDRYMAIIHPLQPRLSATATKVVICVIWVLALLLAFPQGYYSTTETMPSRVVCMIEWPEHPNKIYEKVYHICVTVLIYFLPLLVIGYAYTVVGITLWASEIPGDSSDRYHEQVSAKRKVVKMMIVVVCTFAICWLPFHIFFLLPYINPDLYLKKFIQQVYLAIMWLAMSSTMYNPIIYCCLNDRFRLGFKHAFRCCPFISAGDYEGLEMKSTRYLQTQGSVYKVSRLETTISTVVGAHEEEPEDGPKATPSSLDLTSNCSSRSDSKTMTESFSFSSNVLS

Row | Structure (SMILES) | IC50 [1] | Ki [1] | IC50 [2] | IC50 [3] | IC50 [4] | Ki [4] | IC50 [5] | IC50 [6] | IC50 [7] | IC50 ([4]; read-out: IC50) | Ki ([4]; read-out: Ki) | Ki [2] | Ki [3] | Ki [5] | Ki [6] | Ki [7] | IC50 ([1]; read-out: IC50) | Ki ([1]; read-out: Ki)
1 | CC(C)CN(C[C@@H](O)[C@H](Cc1ccccc1)NC(=O)O[C@H]1CCOC1)S(=O)(=O)c1ccc(N)cc1 | Not Active | Not Active | Not Active | Not Active | Not Active | Not Active | Not Active | Not Active | Not Active |  |  |  |  |  |  |  |  | 
2 | c1ccc(Nc2ccc(Nc3ccccc3)cc2)cc1 | Not Active | Not Active | Not Active | Not Active | Not Active | Not Active | Not Active | Not Active | Not Active |  |  |  |  |  |  |  |  | 
3 | COc1cc2c3cc1Oc1cc(ccc1O)C[C@@H]1c4c(cc(OC)c(O)c4Oc4ccc(cc4)C[C@@H]3N(C)CC2)CC[N+]1(C)C.[Cl-] | Not Active | Not Active | Not Active | Not Active | Not Active | Not Active | Not Active | Not Active | Not Active |  |  |  |  |  |  |  |  | 
4 | NC(=O)N1c2ccccc2CCc2ccccc21 | Not Active | Not Active | Not Active | Not Active | Not Active | Not Active | Not Active | Not Active | Not Active |  |  |  |  |  |  |  |  | 
5 | O=C1CC[C@@H](N2C(=O)c3ccccc3C2=O)C(=O)N1 | Not Active | Not Active | Not Active | Not Active | Not Active | Not Active | Not Active | Not Active | Not Active |  |  |  |  |  |  |  |  | 
6 | Cc1onc(O)c1CC(N)C(=O)O (racemic) [(R,S)-AMPA] | Not Active | Not Active | Not Active | Not Active | Not Active | Not Active | Not Active | Not Active | Not Active |  |  |  |  |  |  |  |  | 
7 | Cc1ccc2cc3c(ccc4ccccc43)c3c2c1CC3 [3-METHYLCHOLANTHRENE] | Not Active | Not Active | Not Active | Not Active | Not Active | Not Active | Not Active | Not Active | Not Active |  |  |  |  |  |  |  |  | 
8 | CC[C@@]1(O)C[C@H](O[C@H]2C[C@H](N(C)C)[C@H](O[C@H]3C[C@H](O)[C@H](O[C@H]4CCC(=O)[C@H](C)O4)[C@H](C)O3)[C@H](C)O2)c2c(cc3c(c2O)C(=O)c2c(O)cccc2C3=O)[C@H]1C(=O)OC [ACLARUBICIN] | Not Active | Not Active | Not Active | Not Active | Not Active | Not Active | Not Active | Not Active | Not Active |  |  |  |  |  |  |  |  | 
9 | Nc1nc2c(ncn2COCCO)c(=O)[nH]1 [ACYCLOVIR] | Not Active | Not Active | Not Active | Not Active | Not Active | Not Active | Not Active | Not Active | Not Active |  |  |  |  |  |  |  |  | 
10 | Cc1c(C)c2c(c(C)c1O)CC[C@@](C)(CCC[C@H](C)CCC[C@H](C)CCCC(C)C)O2 [ALPHA-TOCOPHEROL] | Not Active | Not Active | Not Active | Not Active | Not Active | Not Active | Not Active | Not Active | Not Active |  |  |  |  |  |  |  |  | 
11 | CN(C)c1nc(N(C)C)nc(N(C)C)n1 [ALTRETAMINE] | Not Active | Not Active | Not Active | Not Active | Not Active | Not Active | Not Active | Not Active | Not Active |  |  |  |  |  |  |  |  | 
12 | Nc1c(Br)cc(Br)cc1CN[C@H]1CC[C@H](O)CC1 [AMBROXOL] | Not Active | Not Active | Not Active | Not Active | Not Active | Not Active | Not Active | Not Active | Not Active |  |  |  |  |  |  |  |  | 
13 | NCCCCCC(=O)O [AMINOCAPROIC ACID] | Not Active | Not Active | Not Active | Not Active | Not Active | Not Active | Not Active | Not Active | Not Active |  |  |  |  |  |  |  |  | 
14 | CCC1(c2ccc(N)cc2)CCC(=O)NC1=O (centres undefined) [AMINOGLUTETHIMIDE] | Not Active | Not Active | Not Active | Not Active | Not Active | Not Active | Not Active | Not Active | Not Active |  |  |  |  |  |  |  |  | 
15 | Cc1ccc(/N=C/N(C)/C=N/c2ccc(C)cc2C)c(C)c1 [AMITRAZ] | Not Active | Not Active | Not Active | Not Active | Not Active | Not Active | Not Active | Not Active | Not Active |  |  |  |  |  |  |  |  | 
16 | CCOC(=O)C1=C(COCCN)NC(C)=C(C(=O)OC)C1c1ccccc1Cl (centres undefined) [AMLODIPINE] | Not Active | Not Active | Not Active | Not Active |  |  | Not Active | Not Active | Not Active | 31 nM | 20 nM |  |  |  |  |  |  | 
17 | COc1ccc(C[C@H]2NC[C@H](O)[C@H]2OC(C)=O)cc1 [ANISOMYCIN] | Not Active | Not Active | Not Active | Not Active | Not Active | Not Active | Not Active | Not Active | Not Active |  |  | Not Active | Not Active | Not Active | Not Active | Not Active |  | 
18 | Nc1ncn([C@@H]2O[C@H](CO)[C@@H](O)[C@H]2O)c(=O)n1 [AZACITIDINE] | Not Active | Not Active | Not Active | Not Active | Not Active | Not Active | Not Active | Not Active | Not Active |  |  |  |  |  |  |  |  | 
19 | CN(C)CCCN1c2ccccc2Sc2ccc(Cl)cc21 [CHLORPROMAZINE] |  |  | Not Active | Not Active | Not Active | Not Active | Not Active |  | Not Active |  |  |  |  |  |  |  | 1530 nM | 1480 nM
20 | COc1cc2nc(N3CCN(C(=O)C4COc5ccccc5O4)CC3)nc(N)c2cc1OC (centres undefined) [DOXAZOSIN] | Not Active | Not Active | Not Active | Not Active | Not Active | Not Active | Not Active |  | Not Active |  |  |  |  |  |  |  |  | 
21 | CCCN1C[C@H](CSC)C[C@@H]2c3cccc4[nH]cc(c34)C[C@H]21 [PERGOLIDE] |  |  | Not Active | Not Active | Not Active | Not Active | Not Active |  | Not Active |  |  |  |  |  |  |  | 913 nM | 887 nM
22 | Cc1ccc(N(CC2=NCCN2)c2cccc(O)c2)cc1 [PHENTOLAMINE] |  |  | Not Active | Not Active | Not Active | Not Active | Not Active |  | Not Active |  |  |  |  |  |  |  | 746 nM | 725 nM

From ChEMBL document CHEMBL1909046, “DrugMatrix in vitro pharmacology data”
